Measurements published in US20220288051A1, “METHODS FOR TREATING CANCER USING SERIAL ADMINISTRATION OF E3 UBIQUITIN LIGASE DEGRADERS” (Dana-Farber Cancer Institute, Inc., priority 2019, published 2022).
“Also recorded” adds a separate entry of the source.

Tests used:
MM.1S cells [1] = experiment: Assessment of apoptosis, Annexin V/PI flow cytometry; format: cell-based, human
Experimental: For the assessment of apoptosis, MM.1S cells were seeded into 6-well plates (2×10^6 cells/well) in medium supplemented with 10% FBS and penicillin/streptomycin (3.2 mL) 24 h prior to treatment. Cells were treated with dBET6, JQ1, or vehicle and harvested prior to staining with Annexin V-FITC and PI (BD, Bedford, Mass.). Apoptosis was assessed immediately using flow cytometry (LSR II, BD, Bedford, Mass.)

c-Myc = experiment: Immunoblotting of degronimid-treated MM.1S cells: c-Myc; format: cell-based, human; settings: 0.01-1 μM, 4 h
Experimental: (§1) MM.1S cells were seeded in 6-well plates at 3×10^6 cells/well (˜24 h prior to addition of drug). […] Cell pellets were thawed on ice, lysed using RIPA buffer (ThermoFisher) with protease/phosphatase inhibitor cocktail (Cell Signal Technology, Danvers, Mass.) by incubating on ice 30 min. The lysates were clarified by spinning at 10,000 g for 10 min at 4° C. and the concentration of the lysate was determined using BCA protocol (ThermoFisher). Samples were prepared for Western blot using LDS sample buffer (NuPage, Invitrogen, Carlsbad, Calif., USA) with sample reducing agent (NuPage, Invitrogen) and heated to 95° C. for 5 min. Samples were loaded (20 ug/sample) into Tris-acetate or Bis-Tris gels (NuPage, Invitrogen) and run as per kit instructions using appropriate running buffers. Gels were transferred as described (Matthews et al., 2015) onto PVDF membrane using SDS-based transfer buffer (NuPage, Invitrogen). Membranes were blocked (5% skim milk; or 5% bovine serum albumin in TBS-T) for at least 30 min then probed with primary antibodies overnight (4° C.). […] Each protein of interest (BRD2, BRD3, BRD4, c-myc and CDK9) was assessed in a separate gel and corresponding membrane (which was simultaneously incubated with antibodies for both the target protein of interest and GAPDH, to provide a loading control within the same blot). […]

patient-derived MM cells = experiment: Ex vivo treatment of patient-derived CD138+ tumor cells, CTG; format: cell-based, human; settings: variable prior therapies
Experimental: Bone marrow aspirates (1-4 mL) from individuals with MM (newly diagnosed, smoldering, relapsed/refractory, maintenance treatment) or MGUS were collected after patients provided informed consent and based on tissue collection protocol approved by the Dana-Farber Cancer Institute Institutional Review Board. Samples were processed for separation of CD138+ plasma cells, using CD138-positive selection beads, and immunomagnetic separation, as per kit instructions (EasySep, StemCell, Cambridge, Mass.). Patient-derived tumor cells were cultured in RPMI 1640 medium supplemented with L-glutamine (Life Technologies, Carlsbad, Calif., USA), FBS (10%) (Gemini Bioproducts, Woodland, Calif.), 20 I.U./mL penicillin and 20 μg/mL streptomycin (Fisher Scientific, Springfield, N.J., USA) and hIL-6 (Thermo Fisher Scientific, Waltham, Mass., USA […]).
Samples were processed for separation of CD138+ plasma cells, using CD138-positive selection beads, and immunomagnetic separation, as per kit instructions (EasySep, StemCell, Cambridge, Mass.). […] Viability was assessed using CTG, as described (24 h, 48 h, 72 h) and each treatment was repeated up to 3 times (n=3 biological replicates).

[2] = Tolerability of dBET6 treatment in mice; format: in vivo
Experimental: (§2) i. Subcutaneous MM xenograft model: Luciferase-positive MM.1S cells (10×106 Luc-GFP-MM.1S in matrigel) were transplanted into the right flank of NSG mice (100 μL). […] Treatments were carried out daily for 8 days and tumor size assessed daily using calipers. Mice were culled when tumors reached 2000 mm3 or when moribund.
ii. Xenograft model of diffuse MM lesions: Luciferase-positive MM.1S cells (1×106 Luc-GFP-MM.1S) were injected via the tail vein (IV) into NSG mice. […] BLI was undertaken weekly and mice were euthanized when moribund or upon signs of hind-limb paralysis.

human MM cell lines = experiment: CTG / CS-BLI cell viability of human MM cell lines; format: cell-based
Experimental: (§3) Cell viability and growth of human MM cell lines were assessed using CellTitre-Glo (CTG) assay (Promega, Madison, Wis.) per kit instructions, or CS-BLI as described (Delmore et al., 2011). Briefly, cells were seeded (5×10^3 cells/well) into 96- or 384-well opaque plates, in supplemented media (40 or 50 uL) and incubated for 24 h prior to addition of drug. For co-culture experiments, HS27A cells were pre-seeded (5×10^3 cells/well) into each well in media prior (24 h) to the addition of MM cells. At each time point (24 h, 48 h, and/or 72 h) CTG reagent (10% volume) was added to each well, and plates were read using a microplate reader (BioTek Synergy 2, BioTek, Winooski, Va.).

human MM.1S cells = experiment: Subcutaneous MM xenograft model; format: in vivo, NSG mice
Experimental: as §2

MM.1S cells [3] = experiment: CTG viability of CRISPR-edited MM.1S pools tolerant to bortezomib or JQ1; format: cell-based, human; settings: vs treatment-naive cells with the same sgRNA library
Experimental: as §3
iii. […] Following treatments, all cells were serially cultured without drug and allowed to regrow for as long as required to enable reseeding (60×10^6 cells per flask, 100 mL) and retreatment with individual drugs while maintaining ˜1000× coverage throughout. Concomitant with retreatment, remaining cells were frozen (−80° C.; 20% FBS/DMSO) for later analysis or assessed for drug resistance/sensitivity using CTG assays. Between treatments, and in order to maintain the health of cultures, dead cells were periodically removed using Ficoll centrifugation (1,500 rpm for 10-20 min). For all CRISPR drug treatment experiments, aliquots of MM.1S-Cas9+ cells transduced with the GeCKO(Sanjana et al., 2014; Shalem et al., 2014) or Brunello (Doench et al., 2016) sgRNA libraries were frozen immediately prior to experimentation to determine the baseline distribution of sgRNAs in the cell population.

BRD3 = molecular target: T1, BRD3 (Homo sapiens, UniProt Q15059); experiment: Immunoblotting of degronimid-treated MM.1S cells: BRD3; format: cell-based; settings: 0.01-1 μM, 4 h
T1 construct: endogenous in cells; host or cells: MM.1S
Experimental: as §1

[4] = test system: MM cells cultured in the presence of bone-marrow stromal cells; experiment: CS-BLI viability in co-culture with bone marrow stromal cells; format: cell-based, human; settings: co-culture vs MM cells alone
Experimental: as §3

CDK9 = experiment: Immunoblotting of degronimid-treated MM.1S cells: CDK9; format: cell-based, human; settings: 0.01-1 μM, 4 h
Experimental: as §1

T1 sequence (Q15059 whole entry): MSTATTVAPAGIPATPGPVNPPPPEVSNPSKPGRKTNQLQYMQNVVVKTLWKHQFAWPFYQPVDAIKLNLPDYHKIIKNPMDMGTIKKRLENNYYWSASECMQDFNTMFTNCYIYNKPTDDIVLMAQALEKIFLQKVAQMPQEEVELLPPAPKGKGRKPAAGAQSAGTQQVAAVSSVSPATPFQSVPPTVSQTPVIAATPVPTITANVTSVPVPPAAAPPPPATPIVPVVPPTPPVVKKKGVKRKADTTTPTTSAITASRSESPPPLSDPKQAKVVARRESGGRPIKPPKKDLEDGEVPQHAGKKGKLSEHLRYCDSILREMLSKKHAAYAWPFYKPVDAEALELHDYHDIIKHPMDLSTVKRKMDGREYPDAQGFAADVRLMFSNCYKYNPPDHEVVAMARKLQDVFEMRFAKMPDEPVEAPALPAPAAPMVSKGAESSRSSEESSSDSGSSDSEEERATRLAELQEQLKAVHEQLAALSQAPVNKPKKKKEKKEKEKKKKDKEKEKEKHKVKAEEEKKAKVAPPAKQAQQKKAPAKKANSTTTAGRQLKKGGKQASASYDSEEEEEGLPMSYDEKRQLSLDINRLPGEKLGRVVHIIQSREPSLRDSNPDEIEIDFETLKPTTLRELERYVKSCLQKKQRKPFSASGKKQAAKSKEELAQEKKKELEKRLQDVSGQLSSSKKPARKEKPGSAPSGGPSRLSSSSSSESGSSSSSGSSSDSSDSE

With `Cc1sc2c(c1C)C(c1ccc(Cl)cc1)=N[C@@H](CC(=O)NCCCCCCCCNC(=O)COc1cccc3c1C(=O)N(C1CCC(=O)NC1=O)C3=O)c1nnc(C)n1-2` (some centres unmarked) [dBET6] the “exposure prior to drug washout sufficient to commit cells to cell death” value (MM.1S cells [1]; MM.1S cells, Annexin V/PI staining) was ≤ 4 h, the pro-apoptotic response (MM.1S cells [1]; human MM.1S cells, 0.01 μM or 0.05 μM) was “dose- and time-dependent pro-apoptotic response” and the c-Myc protein levels (c-Myc) was “rapid and robust depletion”. For the same compound, the “response of patient-derived cells” value (patient-derived MM cells) was “dose-dependent response”, the tolerability ([2]; doses and schedules reported) was “Mice tolerated dBET6 treatment” and the “efficacy or tolerability of alternative regimens” value ([2]; pilot experiments, lower or higher dose intensity (data not shown)) was “less efficacy or tolerability, respectively”. The “suppression of MM cell viability” value (human MM cell lines; MM.1S, RPMI-8226, JJN3, 48 h, CTG or CS-BLI, vs JQ1) was “more pronounced suppression of MM cell viability than JQ1”, the “in vitro anti-MM activity” value (human MM cell lines; human MM cell lines, dBET6 compared to dBET1 or JQ1) was “more potent in vitro anti-MM activity of dBET6 compared to dBET1 or JQ1” and the loss of viability (human MM cell lines; larger panel of human MM cell lines, 48 h) was “significant loss of viability in all lines tested”. The “rate of tumor growth increase” value (human MM.1S cells; 30 mg/kg, QD, 8d, IP) was “significantly suppressed the rate of tumor growth increase”, the “increase in overall survival” value (human MM.1S cells; 30 mg/kg, QD, 8d, p<0.05) was 10 days and the survival (human MM.1S cells; subcutaneous MM xenografts) was “prolongation of survival”. The “tumor burden vs vehicle” value (human MM.1S cells; subcutaneous MM.1S xenograft) was “significantly lower tumor burden”, the “dBET6 sensitivity of pools tolerant to bortezomib or JQ1” value (MM.1S cells [3]) was “do not exhibit resistance to dBET6; also recorded: equal to or greater than treatment-naive cells” and the BRD3 protein levels (BRD3) was “rapid and robust depletion”. The “change in responsiveness in the presence of bone-marrow stromal cells” value [4] was “No major changes in dBET6 responsiveness”.

For `CC(C)(C)c1cnc(CSc2cnc(NC(=O)C3CCN(CC(=O)NCCOCCOCCOCCNc4cccc5c4C(=O)N(C4CCC(=O)NC4=O)C5=O)CC3)s2)o1` (centres unmarked) [Thal-SNS-032], the CDK9 protein levels (CDK9) was “causes degradation of CDK9”.
